Where two headings read alike, the source gives them in different places.
Key:
CDK2/Cyclin A = CDK2/Cyclin A (Homo sapiens, UniProt P24941); test: Inhibition of CDK2/Cyclin A Retinoblastoma Kinase Activity; assay type: biochemical; settings: for Ki: apparent Ki, CDK2/proteolyzed cyclin A, Rb fragment substrate, 25 μM ATP
Method in brief: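 Radiometric filter-binding readout of phosphate transfer to an Rb substrate fragment by purified CDK2/truncated cyclin A at 10 or 19 nM. Run at pH 7.4 with 25 μM ATP, 30 °C, 60–75 min, linear rates; background without enzyme subtracted, Ki from competitive-inhibition models.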

[1] = target: human CDK4 and genetically truncated (1-264) cyclin D3 (Homo sapiens, UniProt P11802); test: Inhibition of CDK4/Cyclin D Retinoblastoma Kinase Activity; assay type: biochemical; settings: for Ki: apparent Ki, CDK4/truncated cyclin D3, Rb fragment substrate, 25 μM ATP
human CDK4 and genetically truncated (1-264) cyclin D3, sequence (P11802 whole entry, the tested form may be a part): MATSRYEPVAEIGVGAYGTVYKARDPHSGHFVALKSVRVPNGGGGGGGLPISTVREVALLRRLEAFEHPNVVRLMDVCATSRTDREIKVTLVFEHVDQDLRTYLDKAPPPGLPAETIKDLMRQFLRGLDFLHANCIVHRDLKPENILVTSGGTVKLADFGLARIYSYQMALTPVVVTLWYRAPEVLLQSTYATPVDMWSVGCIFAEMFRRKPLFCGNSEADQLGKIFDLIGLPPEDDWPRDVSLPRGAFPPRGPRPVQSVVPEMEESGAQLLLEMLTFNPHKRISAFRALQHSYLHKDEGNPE
human CDK4 and genetically truncated (1-264) cyclin D3, sequence (P30281 1-264 partner): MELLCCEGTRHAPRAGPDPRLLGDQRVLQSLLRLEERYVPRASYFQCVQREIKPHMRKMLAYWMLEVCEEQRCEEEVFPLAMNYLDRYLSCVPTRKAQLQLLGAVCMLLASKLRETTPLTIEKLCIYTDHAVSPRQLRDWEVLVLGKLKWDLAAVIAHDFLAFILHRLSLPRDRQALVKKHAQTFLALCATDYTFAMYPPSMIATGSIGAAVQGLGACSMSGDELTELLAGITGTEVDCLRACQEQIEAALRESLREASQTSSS
Method in brief: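 Apparent Ki values come from competitive or competitive tight-binding inhibition fits of background-corrected 32P/33P incorporation into His-tagged Rb fragment (386-928), captured on nitrocellulose. Reaction: 5 nM insect-cell-expressed human CDK4 with cyclin D3 (1-264), 25 μM ATP, pH 7.4 HEPES, 2% DMSO, 30° C., 20 min, extended to 60 min for tight-binding inhibitors.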

HCT-116 cell line = test: Inhibition of cell growth, tetrazolium salt (MTT) assay; assay type: cell-based; settings: for IC50: Homo sapiens, HCT-116, 120 h, MTT, three to five days, read-out: HCT-116 IC50; for HCT-116 % Inhibition at 0.25 μM: 0.25 μM compound
Method in brief: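 Growth inhibition by MTT reduction at 540 nm (0.2 mg/mL, 4 h at 37° C, formazan dissolved in DMSO), normalized to cells given only 0.5% v/v DMSO. HCT-116 cultures in McCoy's 5A were dosed 4 h post-plating and kept three to five days at 37° C, 5% CO2.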

[2] = 0.1 μM compound, HCT-116, Table 4
[3] = 0.1 μM compound, HCT-116, Table 3

## CC(C)OC(=O)NS(=O)(=O)N1CCC(Nc2nc(N)c(C(=O)c3c(F)cccc3F)s2)CC1 [Example E5, [1-(4-{4-Amino-5-[1-(2,6-difluoro-phenyl)-methanoyl]-thiazol-2-ylamino}-piperidin-1-yl)-sulfonyl]-carbamic Acid Isopropyl Ester]
CDK2/Cyclin A
  Ki: 38 nM
[1]
  Ki: 170 nM
HCT-116 cell line; first HCT-116 column (c4)
  IC50: > 5000 nM
HCT-116 cell line; second HCT-116 column (c5)
  IC50: > 5000 nM

## COC(=O)c1ccc(OC(=O)N2CCC(Nc3nc(N)c(C(=O)c4c(F)cccc4F)s3)CC2)cc1 [Example Q87]
CDK2/Cyclin A; 0.03 μM compound, Table 4
  CDK2 % Inhibition at 0.03 μM: 54%
[1]; 0.03 μM compound, Table 4
  CDK4 % Inhibition at 0.03 μM: 77%
HCT-116 cell line; [2]
  HCT-116 % Inhibition at 0.1 μM: 4%
HCT-116 cell line; HCT-116, Table 4
  HCT-116 % Inhibition at 0.25 μM: 37%

## Nc1nc(NC2CCN(C(=O)c3ccccc3Cl)CC2)sc1C(=O)c1c(F)cccc1F [Example Q13]
CDK2/Cyclin A; 0.03 μM compound, Table 4
  CDK2 % Inhibition at 0.03 μM: 13%
[1]; 0.03 μM compound, Table 4
  CDK4 % Inhibition at 0.03 μM: 48%
HCT-116 cell line; [2]
  HCT-116 % Inhibition at 0.1 μM: 5%
HCT-116 cell line; HCT-116, Table 4
  HCT-116 % Inhibition at 0.25 μM: 43%

## COC(=O)C(=O)N1CCC(Nc2nc(N)c(C(=O)c3c(F)cccc3F)s2)CC1 [Example Q38]
CDK2/Cyclin A; 0.03 μM compound, Table 4
  CDK2 % Inhibition at 0.03 μM: −12%
[1]; 0.03 μM compound, Table 4
  CDK4 % Inhibition at 0.03 μM: 16%
HCT-116 cell line; [2]
  HCT-116 % Inhibition at 0.1 μM: 0%
HCT-116 cell line; HCT-116, Table 4
  HCT-116 % Inhibition at 0.25 μM: 21%

## Nc1nc(NC2CCN(S(=O)(=O)c3ccc(S(=O)(=O)c4ccccc4)s3)CC2)sc1C(=O)c1c(F)cccc1F [Example P42]
CDK2/Cyclin A; 0.03 μM compound, Table 3
  CDK2 % Inhibition at 0.03 μM: 55%
[1]; 0.03 μM compound, Table 3
  CDK4 % Inhibition at 0.03 μM: 62%
HCT-116 cell line; [3]
  HCT-116 % Inhibition at 0.1 μM: 3%
HCT-116 cell line; HCT-116, Table 3
  HCT-116 % Inhibition at 0.25 μM: 19%

## Nc1nc(NC2CCN(S(=O)(=O)c3ccc(Oc4ccccc4)cc3)CC2)sc1C(=O)c1c(F)cccc1F [Example P84]
CDK2/Cyclin A; 0.03 μM compound, Table 3
  CDK2 % Inhibition at 0.03 μM: 28%
[1]; 0.03 μM compound, Table 3
  CDK4 % Inhibition at 0.03 μM: 38%
HCT-116 cell line; [3]
  HCT-116 % Inhibition at 0.1 μM: 10%
HCT-116 cell line; HCT-116, Table 3
  HCT-116 % Inhibition at 0.25 μM: 26%

## Nc1nc(NC2CCN(C(=O)Nc3ccccc3F)CC2)sc1C(=O)c1c(F)cccc1F [Example O5]
CDK2/Cyclin A; 0.03 μM compound, Table 2
  CDK2 % Inhibition At 0.03 μM: 35%
[1]; 0.03 μM compound, Table 2
  CDK4 % Inhibition at 0.03 μM: 3%
HCT-116 cell line; HCT-116, Table 2
  HCT-116 % Inhibition at 0.25 μM: 31%

## Nc1nc(NC2CCN(S(=O)(=O)c3c(Cl)cc(C(F)(F)F)cc3Cl)CC2)sc1C(=O)c1c(F)cccc1F [Example P82]
CDK2/Cyclin A; 0.03 μM compound, Table 3
  CDK2 % Inhibition at 0.03 μM: −23%
[1]; 0.03 μM compound, Table 3
  CDK4 % Inhibition at 0.03 μM: 12%
HCT-116 cell line; [3]
  HCT-116 % Inhibition at 0.1 μM: 17%
HCT-116 cell line; HCT-116, Table 3
  HCT-116 % Inhibition at 0.25 μM: 24%

## CC1CCC(NCCS(=O)(=O)N2CCC(Nc3nc(N)c(C(=O)c4c(F)cccc4F)s3)CC2)CC1 (mixture of isomers) [Example K40, (4-Amino-2-{1-[2-(4(cis/trans)-methyl-cyclohexylamino)-ethanesulfonyl]-piperidin-4-ylamino}-thiazol-5-yl)-(2,6-difluoro-phenyl)-methanone]
CDK2/Cyclin A
  Ki: 0.51 nM
[1]
  Ki: 2.1 nM
HCT-116 cell line; first HCT-116 column (c4)
  IC50: 66 nM
HCT-116 cell line; second HCT-116 column (c5)
  IC50: 280 nM

## CCC(C(=O)N1CCC(Nc2nc(N)c(C(=O)c3c(F)cccc3F)s2)CC1)c1ccccc1 (stereo not drawn) [Example R10]
CDK2/Cyclin A; at 0.03 μM
  CDK2 % Inhibition at 0.03 μM: 5%
[1]; at 0.03 μM
  CDK4 % Inhibition at 0.03 μM: 29%
HCT-116 cell line; HCT-116 cells, at 0.1 μM
  HCT-116 % Inhibition at 0.1 μM: 0%
HCT-116 cell line; HCT-116 cells, at 0.25 μM
  HCT-116 5 Inhibition at 0.25 μM: 40

## CC1(C)CN(c2ccc(S(=O)(=O)N3CCC(Nc4nc(N)c(C(=O)c5c(F)cccc5F)s4)CC3)cn2)C=N1 [Example G21, 1-(4-Amino-2-{1-[6-(4,4-dimethyl-4,5-dihydro-imidazol-1-yl)-pyridine-3-sulfonyl]-piperidin-4-ylamino}-thiazol-5-yl)-1-(2,6-difluoro-phenyl)-methanone]
CDK2/Cyclin A
  Ki: < 1 nM
[1]
  Ki: 0.68 nM
HCT-116 cell line; first HCT-116 column (c4)
  IC50: 1900 nM
HCT-116 cell line; second HCT-116 column (c5)
  IC50: > 5000 nM

## N#Cc1ccc(S(=O)(=O)N2CCC(Nc3nc(N)c(C(=O)c4c(F)cccc4F)s3)CC2)c(Cl)c1 [Example P71]
CDK2/Cyclin A; 0.03 μM compound, Table 3
  CDK2 % Inhibition at 0.03 μM: 57%
[1]; 0.03 μM compound, Table 3
  CDK4 % Inhibition at 0.03 μM: 52%
HCT-116 cell line; [3]
  HCT-116 % Inhibition at 0.1 μM: 13%
HCT-116 cell line; HCT-116, Table 3
  HCT-116 % Inhibition at 0.25 μM: 21%

## Nc1nc(NC2CCN(S(=O)(=O)CCc3cccc4ccccc34)CC2)sc1C(=O)c1c(F)cccc1F [Example P76]
CDK2/Cyclin A; 0.03 μM compound, Table 3
  CDK2 % Inhibition at 0.03 μM: 9%
[1]; 0.03 μM compound, Table 3
  CDK4 % Inhibition at 0.03 μM: 33%
HCT-116 cell line; [3]
  HCT-116 % Inhibition at 0.1 μM: 23%

## COc1ccc(C(=O)N2CCC(Nc3nc(N)c(C(=O)c4c(F)cccc4F)s3)CC2)cc1 [Example Q28]
CDK2/Cyclin A; 0.03 μM compound, Table 4
  CDK2 % Inhibition at 0.03 μM: 53%
[1]; 0.03 μM compound, Table 4
  CDK4 % Inhibition at 0.03 μM: 82%
HCT-116 cell line; [2]
  HCT-116 % Inhibition at 0.1 μM: 6%
HCT-116 cell line; HCT-116, Table 4
  HCT-116 % Inhibition at 0.25 μM: 41%
